“Also recorded” adds a separate entry of the source. Like-named read-outs stand apart in the source and are kept apart here.
Columns and labels:
[1] = tested on: xanthurenic acid receptor; test: Screening: displacement of [3H]-XA binding to synaptic membranes at a fixed concentration; details: for % inhibition of XA binding at 10 μM* / % inhibition of XA binding at 50 μM*: xanthurenic acid set arbitrarily to 100%; for % inhibition of XA binding at 50 μM*: compound at 50 μM
Protocol: If this concentration produces the same or greater displacement than the same concentration of non-radiolabelled XA, then an IC50 is determined. […] The incubation time is 25 min. […] The filters are placed in scintillation vials to which 5 ml of Rotiszint® (Roth) are added and the vials are counted in a Beckman LS6000sc liquid scintillation counter. Specific binding is given as the difference between total binding and nonspecific binding. The percentage inhibition of binding that the synthetic compounds produce is calculated for each compound in relation to its positive control.

[2] = molecular target: xanthurenic acid receptor; test: Competition protocol, IC50 determination against [3H]-XA binding on synaptic membranes
Protocol: Binding is carried out in 50 mM Pipes buffer pH 7.4 at 0° C. […] If the compound reversibly binds to the binding site of [^3H]-XA, the two ligands will compete with each other and a binding displacement curve for [^3H]-XA can be plotted against the concentration of the competitor molecule. The incubation time is 25 minutes, followed by filtration.

[3] = tested on: xanthurenic acid receptor; test: In vitro electrophysiology experiments, block of xanthurenic acid effects; format: cell-based
[4] = tested on: xanthurenic acid receptor; test: In vivo studies of stereotypic behaviors, block of xanthurenic acid effects
[5] = compound at 10 μM, 200 nM [3H]-XA, synaptic membranes
[6] = 200 nM [3H]-XA, synaptic membranes
[7] = two site binding model, second (higher) IC50, 200 nM [3H]-XA, synaptic membranes, read-out: IC50 (μM), second of two values
[8] = single value, inhibition of binding of 200 nM [3H]-XA, synaptic membranes, read-out: IC50

| % inhibition of XA binding at 10 μM* [1, 5] | Compound | also measured |
| --- | --- | --- |
| 17% | Cl.Nc1cccc2c(CCCO)cc(C(=O)O)nc12 [Compound 96c, 8-amino-4-(3-hydroxy-prop-1-yl)-quinoline-2-carboxylic acid hydrochloride] | – |
| 97% | COC(=O)c1cc(O)c2cc(Nc3ccccc3)cc(N)c2n1 [Compound 33c, Methyl-6-(N-anilino)-8-amino-4-hydroxy-quinoline-2-carboxylate] | – |
| 29% | Cl.Nc1cc(CCc2cccnc2)cc2c(O)cc(C(=O)O)nc12 [Compound 122c, 6-(pyridin-3-yl)ethyl-8-amino-4-hydroxy-quinoline-2-carboxylic acid hydrochloride] | – |
| 54% | O=C(O)c1cc(O)c2cc(CCc3ccccc3)cc(O)c2n1 [Compound 22a, 4,8-dihydroxy-6-phenethyl-quinoline-2-carboxylic acid] | – |
| 0% | CC(=O)Nc1cccc2c(O)cc(C(=O)O)nc12 [Compound 28a, 8-acetylamino-4-hydroxy-quinoline-2-carboxylic acid] | – |
| 72% | CNc1cc(C(=O)O)nc2c(N)cccc12.Cl [Compound 38d, 4-(N-methylamino)-8-amino-quinoline-2-carboxylic acid hydrochloride] | – |
| 43% | CN1CCN(c2cccc3c(O)cc(C(=O)O)nc23)CC1.Cl [Compound 107b, 8-(4-methyl-piperazin-1-yl)4-hydroxy-quinoline-2-carboxylic acid hydrochloride] | – |
| 31% | Nc1ccc(CCCO)c2c(O)cc(C(=O)O)nc12 [Compound 75c, 5-hydroxypropyl-8-amino-4-hydroxy quinoline-2-carboxylic acid] | – |
| 62% | Cl.O=C(O)c1cc(O)c2cccc(N3CCNCC3)c2n1 [Compound 108b, 4-hydroxy-8-(piperazin-1-yl)-quinoline-2-carboxylic acid hydrochloride] | – |
| 220% | Cl.O=C(O)c1cc(N2CCOCC2)c2cccc(O)c2n1 [Compound 99c, 8-hydroxy-4-(morpholin-1-yl)-quinoline-2-carboxylic acid hydrochloride] | – |
| 83% | O=C(O)c1nc2c(OCc3ccccc3)cccc2c(O)c1CN1CCCC1 [Compound 40a, 3-(N-pyrrolidinomethyl)-8-benzyloxy-4-hydroxy-quinoline-2-carboxylic acid] | – |
| 66% | Nc1cc(CCc2ccccc2)cc2c(O)cc(C(=O)O)nc12 [Compound 118c, 6-phenylethyl-8-amino-4-hydroxy-quinoline-2-carboxylic acid] | – |
| 120% | NCCCc1cc(N)c2nc(C(=O)O)cc(O)c2c1 [Compound 121c, 6-(3′-aminopropyl)-8-amino-4-hydroxy-quinoline-2-carboxylic acid] | – |
| 29% | CN(c1ccccc1)c1cccc2c(O)cc(C(=O)O)nc12.Cl [Compound 106b, 8-[phenyl(methyl)amino]-4-hydroxy-quinoline-2-carboxylic acid hydrochloride] | – |
| 0% | O=C(O)c1cc(O)c2cc(CNCc3ccccc3)cc(O)c2n1 [Compound 26a, 4,8-dihydroxy-6-(benzylamino-methyl)-quinoline-2-carboxylic acid] | – |
| 14% | N#Cc1cc(-c2ccccc2)cc2c(O)cc(C(=O)O)nc12 [Compound 64b, 8-cyano-4-hydroxy-6-phenyl-quinoline-2-carboxylic acid] | – |
| 43% | CN(C)c1cccc2c(O)cc(C(=O)O)nc12 [Compound 41d, 8-dimethylamino-4-hydroxy-quinoline-2-carboxylic acid] | – |
| 20% | Cl.Nc1cccc2c(N3CCCCC3)cc(C(=O)O)nc12 [Compound 101c, 8-amino-4-(piperidin-1-yl)-quinoline-2-carboxylic acid hydrochloride] | – |

Further lines, the molecule ahead of its results:

| Compound | % inhibition of XA binding at 10 μM* [1, 5] | also measured |
| --- | --- | --- |
| O=C(O)c1cc(O)c2cccc(O)c2n1 [Xanthurenic acid, reference compound] | 100% | % inhibition of XA binding at 50 μM* [1, 6]: 100%; IC50 ([2]; competition between [3H]-XA and non-radiolabelled XA, read-out: IC50, first site of two site binding model): 0.3 µM; IC50 [2, 7]: 57 µM |
| O=C(O)c1cc(O)c2cc(Br)cc(O)c2n1 [Compound 3k, 4,8-dihydroxy-6-bromo-quinoline-2-carboxylic acid] | – | IC50 [2, 8]: 12 µM |
| Nc1cc(C(=O)O)nc2c(N)cccc12 [17'b, 4,8-diamino-quinoline-2-carboxylic acid] | 7.7% | – |
| Nc1cccc2c(O)cc(C(=O)O)nc12 [Compound 3u, 4-hydroxy-8-amino-quinoline-2-carboxylic acid] | – | effect on xanthurenic acid binding, in words [1]: quite potent inhibitor of xanthurenic acid binding; also recorded: potent inhibitors of XA binding to its site; % inhibition of XA binding at 50 μM* [1, 6]: 106%; effect on xanthurenic acid effects in vitro (electrophysiology) [3]: blocks the effects of xanthurenic acid without displaying an intrinsic effect; IC50 [2, 8]: 14.6 µM; effect on xanthurenic acid effects in vivo (stereotypic behaviors) [4]: blocks the effects of xanthurenic acid without displaying an intrinsic effect |
| Cc1cc(N)c2nc(C(=O)O)cc(O)c2c1 [Compound 3w, 4-hydroxy-6-methyl-8-amino-quinoline-2-carboxylic acid] | 0% | – |
| O=C(O)c1cc(O)c2cc(-c3ccccc3)cc(O)c2n1 [Compound 19f, 4,8-dihydroxy-6-pheenyl-quinoline-2-carboxylic acid] | 163.1% | IC50 [2, 8]: 5.2 µM |
| COc1cccc2ccc(C(=O)O)nc12 | 13% | – |
| Cc1ccc(O)c2nc(C(=O)O)cc(O)c12 [Compound 3e, 4,8-dihydroxy-5-methyl-4-quinoline-2-carboxylic acid] | 48% | – |
| O=C(O)c1ccc2cccc(O)c2n1 | – | IC50 ([2]; two site binding model, first (lower) IC50, 200 nM [3H]-XA, synaptic membranes, read-out: IC50 (μM), first of two values): 0.09 µM; IC50 [2, 7]: 12.3 µM |
| Cc1ccc(N)c2nc(C(=O)O)cc(O)c12 [Compound 3v, 4-hydroxy-5-methyl-8-amino-quinoline-2-carboxylic acid] | 23.4% | – |
| O=C(O)c1cc(O)c2c(Cl)cc(Cl)c(O)c2n1 [Compound 3i, 4,8-dihydroxy-5,7-dichloro-quinoline-2-carboxylic acid] | 163% | % inhibition of XA binding at 50 μM* [1, 6]: 80%; IC50 [2, 8]: 4.6 µM |
| O=C(O)c1cc(O)c2cccc(Br)c2n1 [Compound 3x, 4-hydroxy-8-bromo-quinoline-2-carboxylic acid] | Potentiation | effect on xanthurenic acid binding, in words [1]: increase the binding of xanthurenic acid; real increase in total binding (potentiation) [1, 5]: (+200% real increase |
| O=C(O)c1cc(O)c2c(CO)ccc(O)c2n1 [Compound 3g, 4,8-dihydroxy-5-hydroxymethyl-4-quinoline-2-carboxylic acid] | 84% | – |
| Cc1cc(O)c2nc(C(=O)O)cc(O)c2c1 [Compound 3n, 4,8-dihydroxy-6-methyl-quinoline-2-carboxylic acid] | 21.2% | – |
| O=C(O)c1cc(O)c2c(-c3ccccc3)ccc(O)c2n1 [Compound 19a, 4,8-dihydroxy-5-phenyl-quinoline-2-carboxylic acid] | 1.8% | – |
| O=C(O)c1cc(O)c2c(Br)ccc(O)c2n1 [Compound 3c, 4,8-dihydroxy-5-bromo-quinoline-2-carboxylic acid] | 42% | – |
| COc1ccc(Br)c2ccc(C(=O)O)nc12 [Compound 4g, 8-methoxy-5-bromo-quinoline-2-carboxylic acid] | 0% | – |
| CCCc1cc(O)c2nc(C(=O)O)cc(O)c2c1 [Compound 19r, 4,8-dihydroxy-6-propyl-quinoline-2-carboxylic acid] | 58.1% | – |
